Source: patent US20210196766A1, “DESIGNED BACTERIAL COMPOSITIONS AND USES THEREOF” (Seres Therapeutics, Inc., priority 2019, published 2021)
Read-outs that look alike come from different tables or passages of the source.

Legend:
[1] = system: primary human colon epithelial cell monolayer; assay: Primary epithelial cell monolayer barrier integrity assay (IFN-γ, FITC-dextran); details: for restoration of barrier integrity in the presence of IFN-γ: metabolites, starting at a concentration of about 5 mM
Description: The assays were performed using a primary epithelial cell monolayer barrier integrity assay. […] The addition of interferon-gamma (IFN-γ) disrupts the tight junctions of the epithelial monolayer and induces apoptosis of epithelial cells. The leakiness of the membrane can be assessed by adding FITC-dextran to the apical side of the apparatus and measuring how rapidly it can pass to the basolateral compartment. A leaky monolayer will allow FITC-dextran to the basal side of the apparatus more quickly than a monolayer with an intact monolayer.
Briefly, the barrier integrity assay was conducted as follows. […] Colon organoids were harvested and trypsinized into a suspension containing few cell clusters and seeded onto Matrigel coated transwell inserts (Corning) at a density of 100,000 cells per insert in 50% L-WRN medium supplemented with 10 μM Y-27632 (Millipore Sigma). […] These primarily stem cell population was differentiated into colonocytes by switching the culture medium to 5% L-WRN for 48 hours. After 24 hours of differentiation, specific SCFA or 5% bacterial culture supernatant treatments were added to apical interface in 100 μL of 5% L-WRN medium and 5-25 ng/ml INFγ (Peprotech), depending on the experiment, was added in 175 μL of 5% L-WRN medium to the basolateral interface and incubated for 48 hours at 37° C. After the 48 hour incubation, colonic epithelial monolayer permeability was assessed by adding 10 μL of 10 ng/ml FITC-Dextran (4 kDa, Sigma) to the apical interface, the organoids were incubated for 1 hour and then 100 μL of medium was collected from the basolateral compartment of each transwell and transferred to a 96 well plate for fluorescence detection.

[2] = system: HT29 cells; assay: Anti-inflammatory assay in IECs: TNF-α-driven IL-8 secretion by HT29 cells; type: cell-based, human; details: metabolites
[3] = system: HDAC enzymes (HeLa nuclear extract); assay: HDAC inhibition assay of bacterial supernatants (HDAC-Glo I/II, HeLa nuclear extract); type: biochemical
[4] = GC-MS of short-, medium- and branched-chain fatty acids in supernatants; details: single strain supernatants
Excerpt: FIG. 18 provides a table listing bacterial species and the short chain fatty acids (SCFAs), medium chain fatty acids (MCFAs), and branched chain fatty acids (BCFAs) produced by each of the species. […] The limit of detection for each of the fatty acids is provided in the row labeled “Limit of Detection (LOD).” The SCFAs measured included: acetic acid, propanoic acid, and butanoic acid. The MCFAs measured included: pentanoic acid, hexanoic acid, heptanoic acid. The BCFAs measured included: 2-methyl-propanopic acid, 3-methyl-butanoic acid, and 4-methyl-pentaoic acid.
As described supra, certain tryptophan (Trp) metabolites were associated with remission in patients treated with an HHSP. Accordingly, Applicant tested various bacterial species for the presence of SCFA or tryptophan metabolites in their supernatants. The presence of the tryptophan metabolites was determined using a colorimetric assay for detection of indolic compounds (Indole Reagent, Anaerob Systems). Indole produces a light blue color in this assay, while other Trp metabolites produce purple color. The presence of SCFAs were tested using the HDAC assay (described supra). Supernatants of selected strains that were identified as producers of Trp metabolites by the colorimetric indole assay, and/or producers of SCFAs by the HDAC assay were further analyzed by GC-MS to identify the specific metabolites produced.

In the case of O=C(O)CCc1c[nH]c2ccccc12 [3-indolepropionic acid], the “restoration of barrier integrity in the presence of IFN-γ” value [1] is reported as “restored barrier integrity”.

In the case of CC(=O)O [acetate], the “TNF-α-dependent IL-8 secretion” value [2] is reported as “reduced levels of TNF-α-dependent IL-8 secretion”.

With CCCC(=O)O [butyrate] the decrease of permeability ([1]; 5 mM, positive control) was 50%.

With CCC(=O)O [propionate] the “restoration of barrier integrity in the presence of IFN-γ” value [1] was “restored barrier integrity” and the “TNF-α-dependent IL-8 secretion” value [2] was “reduced levels of TNF-α-dependent IL-8 secretion”.

Clostridium clostridioforme gave an HDAC cluster assignment [3] of 6.

Clostridium disporicum gave an HDAC cluster assignment [3] of 0.

With Clostridium glycolicum the hexanoate production [4] was “Hexanoate producing”.

Clostridium mayombei gave an HDAC cluster assignment [3] of 2.

With Clostridium sp 7 2 43FAA the HDAC cluster assignment ([3]; pattern of HDAC inhibition across nutrient sources) was 5 and the “HDAC Inhibition in any C source (25/18% cutoff)” value ([3]; supernatants of strains grown in PY medium with one of seven C sources at 0.5%) was 1 (If a strain exhibits HDACi activity of at least 0.25 in any nutrient, or 0.18 in fucose, it is considered to have HDACi activity and it is marked with “1”).

Compound Clostridium tertium has an HDAC cluster assignment [3] of 5.

With Parabacteroides distasonis the HDAC cluster assignment [3] was 3.
